Measurements as given in patent publication US20080039422A1, “Vitamin B12-Containing Compositions and Methods of Use” (Transition Therapeutics Inc., priority 2004, published 2008).
Where “and” joins values, the source holds several entries; their conditions need not be identical. Identical values can stand only once.

Experiment: Solubility study (saturated solubility of CN-Cbl, 25°C, 16 hours, UV)
Format: physicochemical
From the text: During the solubility study the following were investigated: • cosolvents (mixtures of ethanol and propylene glycol) • in-situ salt formers • surfactants • pH effects • in-situ salt formers and cosolvents Solubility Study Method
Results of CN-Cbl Solubility in Water and Determination of Equilibrium Time

[1] = Ref. FD4068 29A, buffer Sodium citrate, citric acid, Initial pH 2.64
[2] = Ref. FD4068 30A, buffer Sodium citrate, citric acid, Initial pH 4.75
[3] = Ref. FD4068 30B, buffer Disodium hydrogen phosphate, sodium dihydrogen phosphate, Initial pH 7.03
[4] = Ref. FD4068 31A, buffer Diethanolamine, hydrochloric acid, Initial pH 8.93

Saturated Solubility (0.1 M Choline (12.12 mg/ml), Initial pH 12.54): 29.5 mg/mL
Saturated Solubility (0.1 M Diethanolamine (10.51 mg/ml), Initial pH 10.80): 18.1 mg/mL
Saturated Solubility (0.1 M L-arginine (17.42 mg/ml), Initial pH 10.88): 18.2 mg/mL
Saturated Solubility (0.1 M L-lysine (16.42 mg/ml), Initial pH 9.60): 16.3 mg/mL
Saturated Solubility (0.1 M Meglumine (19.52 mg/ml), Initial pH 11.00): 18.0 mg/mL
Saturated Solubility (0.1 M Triethanolamine (14.92 mg/ml), Initial pH 10.13): 18.6 mg/mL
Saturated Solubility (0.1 M Triethylamine (10.12 mg/ml), Initial pH 11.64): 24.9 mg/mL
Saturated Solubility (Ref. FD4068 14A, Propylene glycol 30% v/v, Ethanol 5% v/v): 36.6 mg/mL
Saturated Solubility (Ref. FD4068 15A, Propylene glycol 32% v/v, Ethanol 5% v/v): 39.8 mg/mL
Saturated Solubility (Ref. FD4068 15B, Propylene glycol 34% v/v, Ethanol 5% v/v): 39.1 mg/mL
Saturated Solubility (Ref. FD4068 15C, Propylene glycol 36% v/v, Ethanol 5% v/v): 41.8 mg/mL
Saturated Solubility (Ref. FD4068 16A, Propylene glycol 38% v/v, Ethanol 5% v/v): 45.5 mg/mL
Saturated Solubility (Ref. FD4068 16B, Propylene glycol 40% v/v, Ethanol 5% v/v): 48.1 mg/mL
Saturated Solubility (Ref. FD4068 16C, Propylene glycol 30% v/v, Ethanol 10% v/v): 45.6 mg/mL
Saturated Solubility (Ref. FD4068 16D, Propylene glycol 32% v/v, Ethanol 10% v/v): 45.8 mg/mL
Saturated Solubility (Ref. FD4068 17A, Propylene glycol 34% v/v, Ethanol 10% v/v): 47.8 mg/mL
Saturated Solubility (Ref. FD4068 17B, Propylene glycol 36% v/v, Ethanol 10% v/v): 51.0 mg/mL
Saturated Solubility (Ref. FD4068 17C, Propylene glycol 38% v/v, Ethanol 10% v/v): 52.2 mg/mL
Saturated Solubility (Ref. FD4068 17D, Propylene glycol 40% v/v, Ethanol 10% v/v (no surfactant)): 53.8 mg/mL
Saturated Solubility (Ref. FD4068 26A, 5% w/v Polysorbate 80, 40% v/v propylene glycol, 10% v/v ethanol): 49.0 mg/mL
Saturated Solubility (Ref. FD4068 26B, 5% w/v Polysorbate 20, 40% v/v propylene glycol, 10% v/v ethanol): 46.5 mg/mL
Saturated Solubility (Ref. FD4068 26C, 5% w/v Paloxamer 188, 40% v/v propylene glycol, 10% v/v ethanol): 45.1 mg/mL
Saturated Solubility (Ref. FD4068 27A, 5% w/v Cremophor RH40, 40% v/v propylene glycol, 10% v/v ethanol): 47.1 mg/mL
Saturated Solubility [1]: 15.3 mg/mL
pH of CN-Cbl Solution [1]: 2.89
Saturated Solubility [2]: 15.0 mg/mL
pH of CN-Cbl Solution [2]: 4.83
Saturated Solubility [3]: 13.6 mg/mL
pH of CN-Cbl Solution [3]: 7.02
Saturated Solubility [4]: 17.5 mg/mL
pH of CN-Cbl Solution [4]: 8.80
pH of CN-Cbl Solution (Ref. FD4068 33, 0.1 M Choline, 40% v/v propylene glycol, 10% v/v ethanol): 12.61
Saturated Solubility (Ref. FD4068 33, Choline 0.100 M (12.12 mg/ml), 40% v/v propylene glycol, 10% v/v ethanol): 91.8 mg/ml and 0.068 M
pH of CN-Cbl Solultion (Ref. FD4068 33, Choline 0.100 M, 40% v/v propylene glycol, 10% v/v ethanol, Initial pH 12.68): 12.6 and 12.61
pH of CN-Cbl Solution (Ref. FD4068 34, 0.1 M Triethylamine, 40% v/v propylene glycol, 10% v/v ethanol): 10.97
Saturated Solubility (Ref. FD4068 38A, 10% v/v Ethanol, 40% v/v Propylene Glycol, 0.1 M Choline, pH adjusted with hydrochloric acid, Initial pH 8.58): 60.3 mg/mL
pH of CN-Cbl Solution (Ref. FD4068 38A, 10% v/v Ethanol, 40% v/v Propylene Glycol, 0.1 M Choline, Initial pH 8.58): 8.10
Saturated Solubility (Ref. FD4068 38B, 10% v/v Ethanol, 40% v/v Propylene Glycol, 0.1 M Choline, pH adjusted with hydrochloric acid, Initial pH 7.85): 59.4 mg/mL
pH of CN-Cbl Solution (Ref. FD4068 38B, 10% v/v Ethanol, 40% v/v Propylene Glycol, 0.1 M Choline, Initial pH 7.85): 7.70
Saturated Solubility (Ref. FD4068 39B, 10% v/v Ethanol, 40% v/v Propylene Glycol, 0.1 M Choline, pH adjusted with hydrochloric acid, Initial pH 8.99): 63.1 mg/mL
pH of CN-Cbl Solution (Ref. FD4068 39B, 10% v/v Ethanol, 40% v/v Propylene Glycol, 0.1 M Choline, Initial pH 8.99): 8.01
Saturated Solubility (Ref. FD4068 39C, 10% v/v Ethanol, 40% v/v Propylene Glycol, 0.1 M Choline, pH adjusted with hydrochloric acid, Initial pH 7.43): 63 mg/mL
pH of CN-Cbl Solution (Ref. FD4068 39C, 10% v/v Ethanol, 40% v/v Propylene Glycol, 0.1 M Choline, Initial pH 7.43): 8.00
Saturated Solubility (Ref. FD4068 42A, Choline 0.055 M (6.71 mg/ml), 40% v/v propylene glycol, 10% v/v ethanol): 80.8 mg/ml and 0.060 M
pH of CN-Cbl Solultion (Ref. FD4068 42A, Choline 0.055 M, 40% v/v propylene glycol, 10% v/v ethanol, Initial pH 12.49): 12.44
Saturated Solubility (Ref. FD4068 42B, Choline 0.068 M (8.23 mg/ml), 40% v/v propylene glycol, 10% v/v ethanol): 82.8 mg/ml and 0.061 M
pH of CN-Cbl Solultion (Ref. FD4068 42B, Choline 0.068 M, 40% v/v propylene glycol, 10% v/v ethanol, Initial pH 12.63): 12.53
Saturated Solubility (Ref. FD4068 43A, Choline 0.111 M (13.41 mg/ml), 40% v/v propylene glycol, 10% v/v ethanol): 92.1 mg/ml and 0.068 M
pH of CN-Cbl Solultion (Ref. FD4068 43A, Choline 0.111 M, 40% v/v propylene glycol, 10% v/v ethanol, Initial pH 12.80): 12.76
pH of CN-Cbl Solution (Ref. FD4068 89B, 0.15 ml 2m HCl + 0.025M pH 5.6 citrate buffer, Choline 0.044 M): 6.97
Saturated Solubility (Ref. FD4068 89B, 0.15 ml 2m HCl + 0.025M pH 5.6 citrate buffer, Choline 0.044 M (5.34 mg/ml), Initial pH 7.03): 52.6 mg/mL
pH of CN-Cbl Solution (Ref. FD4068 96, 0.2 ml 2M HCl + 0.025M pH 7.0 phosphate buffer, Choline 0.044 M): 7.96
Saturated Solubility (Ref. FD4068 96, 0.2 ml 2M HCl + 0.025M pH 7.0 phosphate buffer, Choline 0.044 M (5.34 mg/ml), Initial pH 8.10): 54.5 mg/mL
pH of CN-Cbl Solution (Ref. FD4068 102A, 0.4m 2M HCl + 0.025M pH 6.8 phosphate buffer, Choline 0.088 M): 7.97
Saturated Solubility (Ref. FD4068 102A, 0.4m 2M HCl + 0.025M pH 6.8 phosphate buffer, Choline 0.088 M (10.67 mg/ml), Initial pH 8.12): 58.5 mg/mL
pH of CN-Cbl Solution (Ref. FD4068 103, no buffer, pH adjusted with HCl, Choline 0.044 M): 7.21
Saturated Solubility (Ref. FD4068 103, no buffer, pH adjusted with HCl, Choline 0.044 M (5.34 mg/ml), Initial pH 8.05): 54.6 mg/mL
Saturated Solubility (Ref. FD4068 107A, Choline chloride 0.044 M (6.14 mg/ml, Molar Ratio 1:1), 40% v/v propylene glycol, 10% v/v ethanol, pH adjusted to 8 with sodium hydroxide): 53.2 mg/mL
pH of CN-Cbl Solution (Ref. FD4068 107A, Choline chloride 0.044 M, 40% v/v propylene glycol, 10% v/v ethanol): 6.36
Saturated Solubility (Ref. FD4068 108B, Choline chloride 0.221 M (30.86 mg/ml, Molar Ratio 1:5), 40% v/v propylene glycol, 10% v/v ethanol, pH adjusted to 8 with sodium hydroxide): 60.1 mg/mL
pH of CN-Cbl Solution (Ref. FD4068 108B, Choline chloride 0.221 M, 40% v/v propylene glycol, 10% v/v ethanol): 6.51
Saturated Solubility (Ref. FD4068 109A, Choline chloride 0.133 M (18.57 mg/ml, Molar Ratio 1:3), 40% v/v propylene glycol, 10% v/v ethanol, pH adjusted to 8 with sodium hydroxide): 57.4 mg/mL
pH of CN-Cbl Solution (Ref. FD4068 109A, Choline chloride 0.133 M, 40% v/v propylene glycol, 10% v/v ethanol): 6.63
Saturated Solubility (Ref. FD4068 110A, Choline chloride 0.443 M (61.81 mg/ml, Molar Ratio 1:10), 40% v/v propylene glycol, 10% v/v ethanol, pH adjusted to 8 with sodium hydroxide): 66.6 mg/mL
pH of CN-Cbl Solution (Ref. FD4068 110A, Choline chloride 0.443 M, 40% v/v propylene glycol, 10% v/v ethanol): 6.40
Saturated Solubility (Ref. FD4068 112A, Choline chloride 0.443 M (61.81 mg/ml, 1:10), 40% v/v propylene glycol, 10% v/v ethanol, 0.025 M phosphate buffer pH 8): 66.8 mg/mL
pH of CN-Cbl Solution (Ref. FD4068 112A, Choline chloride 0.443 M, 40% v/v propylene glycol, 10% v/v ethanol, 0.025 M phosphate buffer): 7.93
Saturated Solubility (Ref. FD4068 112B, Choline chloride 0.184 M (25.75 mg/ml, 1:5), 40% v/v propylene glycol, 10% v/v ethanol, 0.025 M phosphate buffer pH 8): 62.7 mg/mL
pH of CN-Cbl Solution (Ref. FD4068 112B, Choline chloride 0.184 M, 40% v/v propylene glycol, 10% v/v ethanol, 0.025 M phosphate buffer): 7.97
Saturated Solubility (Water, Equilibrium Time 16 hours): 15.25 mg/mL
Saturated Solubility (Water, Equilibrium Time 24 hours): 15.47 mg/mL
Saturated Solubility (Water, Equilibrium Time 40 hours): 15.27 mg/mL
Saturated Solubility, mean (Water, mean of equilibrium times 16, 24, 40 hours): 15.33 mg/mL
pH of CN-Cbl Solution (saturated in 0.1 M Choline (12.12 mg/ml)): 12.5 and 12.49
pH of CN-Cbl Solution (saturated in 0.1 M Diethanolamine (10.51 mg/ml)): 10.15
pH of CN-Cbl Solution (saturated in 0.1 M L-arginine (17.42 mg/ml)): 10.22
pH of CN-Cbl Solution (saturated in 0.1 M L-lysine (16.42 mg/ml)): 9.59
pH of CN-Cbl Solution (saturated in 0.1 M Meglumine (19.52 mg/ml)): 10.70
pH of CN-Cbl Solution (saturated in 0.1 M Triethanolamine (14.92 mg/ml)): 9.26
pH of CN-Cbl Solution (saturated in 0.1 M Triethylamine (10.12 mg/ml)): 11.42
Substance: cyanocobalamin [CN-Cbl]
